#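 Protocol summary: plate cells (96-well), add compound at 5 concentrations, incubate 48 h, interpolate endpoints linearly. At the GI50, growth is halved.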 Calls of active or inactive are those of the source. Cut-off read from the data, not from the text of the source: active = GI50 up to about 1.1 µM and inactive = higher.
# Legend:
# Assay in all cases: growth of human tumour cells (NCI), 48 h
# COLO 205 = system: COLO 205
# NCI-H460 = system: NCI-H460
# MCF7 = system: MCF7
# K562 = system: K562
# SK-MEL-28 = system: SK-MEL-28
# T47D = system: T47D
# PC-3 = system: PC-3
# SNB-19 = system: SNB-19
# SR = system: SR
# OVCAR-8 = system: OVCAR-8
# KM12 = system: KM12
# SK-OV-3 = system: SK-OV-3
# SNB-75 = system: SNB-75
# MDA-MB-231 = system: MDA-MB-231
# NCI-H522 = system: NCI-H522
# HCT-15 = system: HCT-15
# HCC 2998 = system: HCC 2998
# MDA-MB-435 = system: MDA-MB-435
# UACC-62 = system: UACC-62
# BT-549 = system: BT-549
# HOP-92 = system: HOP-92
# DU-145 = system: DU-145
# SK-MEL-5 = system: SK-MEL-5
# CCRF-CEM = system: CCRF-CEM
# MDA-N = system: MDA-N
# NCI-H226 = system: NCI-H226
# SF-539 = system: SF-539
# NCI-H23 = system: NCI-H23
# Hs-578T = system: Hs-578T
# 786-0 = system: 786-0
# CAKI-1 = system: CAKI-1
# RXF 393 = system: RXF 393
# RPMI-8226 = system: RPMI-8226
# OVCAR-3 = system: OVCAR-3
# EKVX = system: EKVX
# UACC-257 = system: UACC-257
# OVCAR-5 = system: OVCAR-5
# SW-620 = system: SW-620
# U-251 = system: U-251
# HT-29 = system: HT-29
# HOP-62 = system: HOP-62
# SK-MEL-2 = system: SK-MEL-2
# NCI/ADR-RES = system: NCI/ADR-RES
# SN12C = system: SN12C
# LOX IMVI = system: LOX IMVI
# OVCAR-4 = system: OVCAR-4
# UO-31 = system: UO-31
# HCT-116 = system: HCT-116
# TK-10 = system: TK-10
# ACHN = system: ACHN
# M14 = system: M14
# SF-268 = system: SF-268
# IGROV-1 = system: IGROV-1
# A498 = system: A498
# Malme-3M = system: Malme-3M
# HL-60 = system: HL-60
# SF-295 = system: SF-295
# A549 = system: A549
# MOLT-4 = system: MOLT-4
smiles,measurement,setting,value
CCCCCCCCCCC1OC([C@@H](O)CC[C@H](O)C2CC[C@@H](CCCCCCCC(O)CC3=CC(C)OC3=O)O2)CCC1O (stereo not given in full),GI50,COLO 205,6.85 µM (inactive)
same,GI50,NCI-H460,1.52 µM (inactive)
same,GI50,MCF7,6.79 µM (inactive)
same,GI50,K562,0.204 µM (active)
same,GI50,SK-MEL-28,> 17.9 µM (inactive)
same,GI50,T47D,7.71 µM (inactive)
same,GI50,PC-3,5.94 µM (inactive)
same,GI50,SNB-19,9.46 µM (inactive)
same,GI50,SR,0.0025 µM (active)
same,GI50,OVCAR-8,3.79 µM (inactive)
same,GI50,KM12,2.58 µM (inactive)
same,GI50,SK-OV-3,7.67 µM (inactive)
same,GI50,SNB-75,3.41 µM (inactive)
same,GI50,MDA-MB-231,> 16.3 µM (inactive)
same,GI50,NCI-H522,5.89 µM (inactive)
same,GI50,HCT-15,10.1 µM
same,GI50,HCC 2998,8 µM (inactive)
same,GI50,MDA-MB-435,7.24 µM (inactive)
same,GI50,UACC-62,4.72 µM (inactive)
same,GI50,BT-549,12.4 µM (inactive)
same,GI50,HOP-92,8.95 µM (inactive)
same,GI50,DU-145,14.6 µM (inactive)
same,GI50,SK-MEL-5,0.115 µM (active)
same,GI50,CCRF-CEM,5.97 µM (inactive)
same,GI50,MDA-N,3.57 µM (inactive)
same,GI50,NCI-H226,14 µM (inactive)
same,GI50,SF-539,14.4 µM (inactive)
same,GI50,NCI-H23,0.363 µM (active)
same,GI50,Hs-578T,2.68 µM (inactive)
same,GI50,786-0,11.5 µM (inactive)
same,GI50,CAKI-1,11.7 µM (inactive)
same,GI50,RXF 393,> 9.77 µM (inactive)
same,GI50,RPMI-8226,3.59 µM (inactive)
same,GI50,OVCAR-3,5.64 µM (inactive)
same,GI50,EKVX,2.09 µM (inactive)
same,GI50,UACC-257,0.622 µM (active)
same,GI50,OVCAR-5,> 15 µM (inactive)
same,GI50,SW-620,> 17.9 µM (inactive)
same,GI50,U-251,14.4 µM (inactive)
same,GI50,HT-29,5.4 µM (inactive)
same,GI50,HOP-62,4.53 µM (inactive)
same,GI50,SK-MEL-2,9.08 µM (inactive)
same,GI50,NCI/ADR-RES,1.5 µM (inactive)
same,GI50,SN12C,9.12 µM (inactive)
same,GI50,LOX IMVI,1.27 µM (inactive)
same,GI50,OVCAR-4,8.61 µM (inactive)
same,GI50,UO-31,4.41 µM (inactive)
same,GI50,HCT-116,0.148 µM (active)
same,GI50,TK-10,11.7 µM (inactive)
same,GI50,ACHN,6.38 µM (inactive)
same,GI50,M14,8.04 µM (inactive)
same,GI50,SF-268,2.35 µM (inactive)
same,GI50,IGROV-1,2.61 µM (inactive)
same,GI50,A498,> 14.9 µM (inactive)
same,GI50,Malme-3M,14 µM (inactive)
same,GI50,HL-60,2.74 µM (inactive)
same,GI50,SF-295,0.708 µM (active)
same,GI50,A549,5.21 µM (inactive)
CSc1nc(Br)nc2ncn(C3CC(Oc4ccc(C)cc4)C(COc4ccc(C)cc4)O3)c12 (stereo not given),GI50,COLO 205,> 100 µM (inactive)
same,GI50,NCI-H460,> 100 µM (inactive)
same,GI50,MCF7,> 100 µM (inactive)
same,GI50,MOLT-4,> 100 µM (inactive)
same,GI50,SK-MEL-28,> 100 µM (inactive)
same,GI50,T47D,> 100 µM (inactive)
same,GI50,PC-3,> 100 µM (inactive)
same,GI50,SNB-19,> 100 µM (inactive)
same,GI50,SR,3.72 µM (inactive)
same,GI50,OVCAR-8,80.7 µM (inactive)
same,GI50,KM12,> 100 µM (inactive)
same,GI50,SK-OV-3,> 100 µM (inactive)
same,GI50,SNB-75,21.9 µM (inactive)
same,GI50,MDA-MB-231,> 100 µM (inactive)
same,GI50,NCI-H522,> 100 µM (inactive)
same,GI50,HCT-15,> 100 µM
same,GI50,HCC 2998,> 100 µM (inactive)
same,GI50,MDA-MB-435,> 100 µM (inactive)
same,GI50,UACC-62,> 100 µM (inactive)
same,GI50,BT-549,> 100 µM (inactive)
same,GI50,HOP-92,34 µM (inactive)
same,GI50,DU-145,> 100 µM (inactive)
same,GI50,SK-MEL-5,> 100 µM (inactive)
same,GI50,CCRF-CEM,> 100 µM (inactive)
same,GI50,MDA-N,> 100 µM (inactive)
same,GI50,NCI-H226,> 100 µM (inactive)
same,GI50,SF-539,28.9 µM (inactive)
same,GI50,NCI-H23,> 100 µM (inactive)
same,GI50,Hs-578T,25.1 µM (inactive)
same,GI50,786-0,> 100 µM (inactive)
same,GI50,CAKI-1,66.2 µM (inactive)
same,GI50,RPMI-8226,> 100 µM (inactive)
same,GI50,OVCAR-3,> 100 µM (inactive)
same,GI50,EKVX,> 100 µM (inactive)
same,GI50,UACC-257,> 100 µM (inactive)
same,GI50,OVCAR-5,> 100 µM (inactive)
same,GI50,SW-620,> 100 µM (inactive)
same,GI50,U-251,> 100 µM (inactive)
same,GI50,HT-29,> 100 µM (inactive)
same,GI50,HOP-62,> 100 µM (inactive)
same,GI50,SK-MEL-2,> 100 µM (inactive)
same,GI50,NCI/ADR-RES,> 100 µM (inactive)
same,GI50,SN12C,> 100 µM (inactive)
same,GI50,LOX IMVI,> 100 µM (inactive)
same,GI50,OVCAR-4,> 100 µM (inactive)
same,GI50,UO-31,17.7 µM (inactive)
same,GI50,HCT-116,> 100 µM (inactive)
same,GI50,TK-10,> 100 µM (inactive)
same,GI50,ACHN,28.2 µM (inactive)
same,GI50,M14,> 100 µM (inactive)
same,GI50,SF-268,> 100 µM (inactive)
same,GI50,IGROV-1,> 100 µM (inactive)
same,GI50,A498,> 100 µM (inactive)
same,GI50,Malme-3M,> 100 µM (inactive)
same,GI50,HL-60,> 100 µM (inactive)
same,GI50,SF-295,> 100 µM (inactive)
same,GI50,A549,> 100 µM (inactive)

# — ChEMBL document CHEMBL1201862, “PubChem BioAssay data set” (2004)
